Series [1] has as its system Mycobacterium tuberculosis. In words: Antimycobacterial activity against Mycobacterium tuberculosis H37Rv assessed as inhibition of bacteria at 12.5 ug/ml measured after 12 to 28 days by Lowenstein-Jensen method relative to control. Format: functional. Conditions: time 12-28 day.
Series [2] deals with Mycobacterium tuberculosis. Put plainly: Antimycobacterial activity against Mycobacterium tuberculosis H37Rv ATCC 25618 incubated for 5 days by colorimetric microdilution assay. Format: functional. Conditions: H37Rv ATCC 25618, 120 h, time 5 day.
For series [3], the system named is Mycobacterium tuberculosis. In words: Antimycobacterial activity against Mycobacterium tuberculosis H37Rv incubated for 4 weeks. Format: functional. Conditions: 672 h.
Series [4] deals with Mycobacterium tuberculosis. Put plainly: Antimycobacterial activity against Mycobacterium tuberculosis RCMB 010126 measured after 7 days by microplate alamar blue assay. Format: functional. Conditions: RCMB 010126, 168 h, time 7 day. For orientation: Resazurin is reduced to fluorescent resorufin, in cell work by metabolically active cells.
Another series deals with WI-38. In words: Cytotoxicity against human WI-38 cells by MTT assay. Format: cell-based.
A short description of series [5]: Selectivity ratio of IC50 for human WI-38 cells to MIC for Mycobacterium tuberculosis RCMB 010126. The series is classed as toxicity.
The subject of series [6] is Mycobacterium tuberculosis. In words: Antimycobacterial activity against Mycobacterium tuberculosis H37Rv ATCC 27294. Format: functional.
Series [7] deals with Mycobacterium tuberculosis. Put plainly: Antimycobacterial activity against Mycobacterium tuberculosis H37Rv ATCC 27294 assessed as growth inhibition at 12.5 ug/ml by microplate alamar blue assay relative to control. Conditions: read-out: GI. The series is classed as functional.
Series [8] concerns Mycobacterium tuberculosis. In words: Antimycobacterial activity against Mycobacterium tuberculosis H37Rv 27294 by microplate alamar blue assay. Format: functional.
Series [9] in a line: Cytotoxicity against African green monkey Vero cells after 72 hrs by cell titer glo luminescent cell viability assay. Format: cell-based. As to conditions: chlorocebus sabaeus. (In general: In ATP-based viability assays light output follows the ATP content of the culture.)
The nature of series [10]: Selectivity ratio of CC50 for African green monkey Vero E6 cells to IC90 for Mycobacterium tuberculosis H37Rv 27294. Format: toxicity, Vero C1008.
Series [11] relates to Mycobacterium tuberculosis. In words: Antimycobacterial activity against Mycobacterium tuberculosis H37Rv measured after 11 to 12 days. The series is classed as functional. As to conditions: time 11-12 day.
Series [12] relates to Mycobacterium tuberculosis. Put plainly: Antimycobacterial activity against Mycobacterium tuberculosis measured up to 2 weeks. The series is classed as functional. As to conditions: 336 h, time weeks <=2.
Series [13] relates to Mycobacterium tuberculosis. In words: Antimycobacterial activity against Mycobacterium tuberculosis HN878 measured up to 2 weeks. The series is classed as functional. Conditions: HN878, 336 h, time weeks <=2.
Series [14] deals with Mycobacterium tuberculosis. In words: Antimycobacterial activity against Mycobacterium tuberculosis Erdman measured up to 2 weeks. The series is classed as functional. As to conditions: 336 h, time weeks <=2.
In series [15] the test system is Mycobacterium tuberculosis. In words: Antimycobacterial activity against Mycobacterium tuberculosis H37Ra ATCC 25177 measured on 12th day by XTT reduction menadione assay. The series is classed as functional. Conditions: H37Ra ATCC 25177, 288 h, time 12 day. (In general: Formazan colour is commonly taken as a measure of viable cells.)
In series [16] the test system is Mycobacterium tuberculosis. Put plainly: Antimycobacterial activity against Mycobacterium tuberculosis H37Rv by Lowenstein-Jensen method. The series is classed as functional.
The subject of series [17] is Mycobacterium tuberculosis. In words: Antimycobacterial activity against Mycobacterium tuberculosis H37Rv assessed as mycobacterial growth inhibition at 12.5 ug/ml relative to control. Format: functional. As to conditions: read-out: GI.
Series [18] has as its system Mycobacterium tuberculosis. Put plainly: Antimycobacterial activity against Mycobacterium tuberculosis H37Ra ATCC 25177 assessed as inhibition of bacteria at 30 ug/ml by XTT reduction menadione assay relative to control. Format: functional.
The test system of series [19] is Mycobacterium tuberculosis. Put plainly: Antimycobacterial activity against Mycobacterium tuberculosis H37Rv assessed as inhibition of bacteria at 12.5 ug/ml by microplate alamar blue assay relative to control. The series is classed as functional.
The subject of series [20] is Mycobacterium tuberculosis. Put plainly: Antimycobacterial activity against Mycobacterium tuberculosis H37Rv assessed as bacterial inhibition at 25 ug/ml by microplate alamar blue assay relative to control. The series is classed as functional.
The test system of series [21] is Mycobacterium tuberculosis. In words: Antimycobacterial activity against Mycobacterium tuberculosis ATCC 27286 assessed as zone of inhibition at 20 ug/ml. The series is classed as functional. Conditions: read-out: IZ.
The target of series [22] is T1, Enoyl-[acyl-carrier-protein] reductase [NADH] (Mycobacterium tuberculosis, UniProt P9WGR1).
T1 sequence (P9WGR1 whole entry): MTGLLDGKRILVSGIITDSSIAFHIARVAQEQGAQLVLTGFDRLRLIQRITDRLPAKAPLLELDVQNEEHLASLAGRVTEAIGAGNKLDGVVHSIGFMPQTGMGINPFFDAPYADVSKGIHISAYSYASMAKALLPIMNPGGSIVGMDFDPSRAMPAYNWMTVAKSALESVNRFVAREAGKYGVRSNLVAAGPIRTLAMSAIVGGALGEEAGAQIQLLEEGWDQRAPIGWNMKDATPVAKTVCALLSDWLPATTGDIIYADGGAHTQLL
Put plainly: Inhibition of Mycobacterium tuberculosis InhA.

The test system of series [23] is Mycobacterium tuberculosis. In words: Antimycobacterial activity against Mycobacterium tuberculosis H37Rv incubated for 7 days by resazurin dye based assay. Format: functional. As to conditions: 168 h, time 7 day.
In series [24] the test system is Mycobacterium tuberculosis. In words: Antimycobacterial activity against Mycobacterium tuberculosis H37Rv assessed as growth inhibition at 16 ug/ml measured after 12 to 28 days by Lowenstein-Jensen agar method relative to control. Format: functional. As to conditions: time 12-28 day, read-out: GI.
In series [25] the test system is Mycobacterium tuberculosis. In words: Antimycobacterial activity against Mycobacterium tuberculosis H37Ra ATCC 25177 by XTT Reduction Menadione assay. Format: functional.
The subject of series [26] is Mycobacterium tuberculosis. In words: Antimycobacterial activity against Mycobacterium tuberculosis H37Rv by filter paper disc diffusion method. Format: functional.
Series [27] concerns Mycobacterium tuberculosis. In words: Antimycobacterial activity against Mycobacterium tuberculosis H37Rv ATCC 27294 incubated for 5 days by microplate alamar blue assay. The series is classed as functional. Conditions: H37Rv ATCC 27294, 120 h, time 5 day.
The test system of series [28] is Mycobacterium tuberculosis. In words: Antimycobacterial activity against Mycobacterium tuberculosis H37Rv ATCC27294 measured after 28 days by two-fold serial dilution method. The series is classed as functional. As to conditions: H37Rv ATCC 27294, 672 h, time 28 day.
Series [29] deals with Mycobacterium tuberculosis. In words: Antimycobacterial activity against Mycobacterium tuberculosis H37Rv by Lowenstein-Jensen agar method. The series is classed as functional.
In series [30] the test system is Mycobacterium tuberculosis. Put plainly: Antimycobacterial activity against Mycobacterium tuberculosis H37Rv measured after 12 to 28 days by Lowenstein-Jensen method. As to conditions: time 12-28 day. Format: functional.

Values after ≈ are worked out from the molar mass of the structure shown.

For the compound `O=C1CSC(c2cc3ccccc3nc2Cl)N1c1ccc(F)cc1` (configuration not stated), the inhibition at 12.5 µg/mL in [1] was found to be 99%.
In series [2], `C/C(=N/N=C1\NC(=O)CS1)c1cc2ccccc2oc1=O` gave an MIC of 83 mg/L (≈ 275 µM).
As to `O=C(CNNC(=O)c1ccncc1)COc1ccc(/C=C2\SC(=O)NC2=O)cc1`, in series [3], the MIC amounted to 50 mg/L (≈ 121 µM).
The same measure, in the same setting: the same measure for `COc1ccc(/C=C2\SC(=O)N(CNNC(=O)c3ccncc3)C2=O)cc1`: 50 mg/L (≈ 130 µM).
Take `CCOC(=O)c1sc(/N=C2\NC(=O)/C(=C/c3cccnc3)S2)nc1C`: the lowest concentration to inhibit growth in series [4] (MIC) was 1.56 mg/L (≈ 4.17 µM). The compound also registered an IC50 in the series on WI-38 of 81.3 mg/L (≈ 217 µM). In series [5], the selectivity ratio worked out at 52.
In the case of `CCn1c(C(=O)NN2C(=O)CSC2c2ccc([N+](=O)[O-])cc2)cc(=O)c2cc(F)c(N3CCNCC3)cc21` (configuration not stated), the MIC in series [6] worked out at 16.3 µM (≈ 8.8 µg/mL).
Regarding `O=C1CSC(c2c(-c3ccccc3)[nH]c3ccc(Cl)cc23)N1c1nc(-c2cc3cc(Br)ccc3oc2=O)cs1` (configuration not stated), in [7], the inhibition of growth at 12.5 µg/mL was 80%.
Take `CCN1C(=O)/C(=C/c2ccc(OC)cc2)S/C1=N/NC(=O)c1ccncc1`: it took 2.95 mg/L (≈ 7.72 µM) to reach the 90% level in series [8] (IC90). In series [9], this compound showed a CC50 at 72 h of 36.9 mg/L (≈ 96.4 µM). Moreover, the selectivity ratio in series [10] was 18.1.
With `O=C(O)CCCCCC1NC(=O)CS1` (configuration not stated), the MIC worked out at 1.56 µM (≈ 0.339 µg/mL) in series [11], 0.096 µM (≈ 0.0209 µg/mL) in [12], 0.6 µM (≈ 0.13 µg/mL) in [13] and 1.56 µM (≈ 0.339 µg/mL) in series [14].
Turning to `O=C1CSC(c2ccc(OCc3cc4ccccc4n4nnnc34)cc2)N1c1ccc([N+](=O)[O-])cc1` (configuration not stated), the MIC in series [15] amounted to 20.3 mg/L (≈ 40.8 µM).
For `COc1cc(C2SCC(=O)N2NC2=Nc3ccccc3Sc3ccccc32)cc(OC)c1OC` (configuration not stated), in series [16], the MIC stood at 125 mg/L (≈ 253 µM).
As for `CC1SC(c2ccc(O)cc2)N(Nc2nc(-c3ccccc3)c(C#N)c(=O)n2C)C1=O` (configuration not stated), the inhibition of growth at 12.5 µg/mL in series [17] was 44%.
On to `Cc1nc(-c2cnccn2)sc1C(=O)NN1C(=O)CSC1c1ccccc1` (configuration not stated), for which, in series [18], the inhibition at 30 µg/mL is 71%.
As to `CCCCCCCCCCCCN1C(=O)C(CC(=O)O)SC12CCN(C(=O)C(N)Cc1ccccc1)CC2` (configuration not stated), in series [19], the inhibition at 12.5 µg/mL worked out at 94%. The inhibition at 25 µg/mL in [20] worked out at 97%.
Turning to `O=C(NN1C(=O)CSC1c1c[nH]c2ccccc12)c1ccncc1` (configuration not stated), in [21], the zone of inhibition at 20 µg/mL was found to be 35 mm. Also, the inhibition constant Ki in series [22] is 0.641 µM.
In the case of `O=C1C(CN2CCOCC2)SC(c2ccc(Cl)cc2)N1c1ccc(Cl)cc1` (configuration not stated), it took 25 mg/L (≈ 59.1 µM) to inhibit growth in series [23] (MIC).
Regarding `COc1ccc(C(CNC(=O)CNN2C(=O)CSC2c2ccc(O)c(OC)c2)C2(O)CCCCC2)cc1` (configuration not stated), the inhibition of growth at 16 µg/mL in series [24] is 99%.
Compound `O=C1NC(=S)S/C1=C\c1ccc([N+](=O)[O-])cc1` yielded an IC90 in series [25] of 22.3 mg/L (≈ 83.7 µM).
Regarding `CO[C@H]1/C=C/O[C@@]2(C)Oc3c(C)c(O)c4c(O)c(c(/C=N/N5CCN(C)CC5)c(O)c4c3C2=O)NC(=O)/C(C)=C\C=C\[C@H](C)[C@H](O)[C@@H](C)[C@@H](O)[C@@H](C)[C@H](OC(C)=O)[C@@H]1C` [RIFAMPIN], the MIC amounted to 2.5 mg/L (≈ 3.04 µM) in series [26]; 1 mg/L (≈ 1.22 µM) in series [27]; 0.24 µM (≈ 0.198 µg/mL) in series [28]; 40 mg/L (≈ 48.6 µM) in series [29]; 40 mg/L (≈ 48.6 µM) in series [30].

As a reminder, the inhibition is the share of the control response that was lost under treatment. In general, MIC refers to the lowest concentration that inhibits growth of the organism. What is called IC50 is the midpoint of a concentration-inhibition curve. The IC90 is the point of the concentration-response curve where the effect stands at 90%. In general, CC50 refers to the concentration that lowers cell viability or growth by half. One may read the Ki as the equilibrium dissociation constant of an inhibitor or competing ligand from its target.

These data come from ChEMBL document CHEMBL4813957, “Antitubercular properties of thiazolidin-4-ones - A review” (Eur J Med Chem, 2021).
